Experimental data as given in ChEMBL document CHEMBL1126628, “Design, synthesis, and neurochemical evaluation of 5-(3-alkyl-1,2,4- oxadiazol-5-yl)-1,4,5,6-tetrahydropyrimidines as M1 muscarinic receptor agonists” (J Med Chem, 1993).

Key:
[1] = target: Muscarinic acetylcholine receptor
Description: Inhibition of [3H]-(R)-QNB binding to muscarinic receptors of rat brain membranes.

Rattus norvegicus [2] = species on record: Rattus norvegicus
Description: Ability to stimulate phosphoinositol metabolism was examined in the rat cerebral cortex at 100 uM

Rattus norvegicus [3] = species on record: Rattus norvegicus; test: cells; details: Hippocampus
Description: Inhibition of the response (stimulation of phosphoinositol metabolism in rat hippocampus) to 10 uM of compound by AF-DX 116

Rattus norvegicus [4] = species on record: Rattus norvegicus; test: cells; details: Hippocampus; remark: listed apart in the source
Description: Inhibition of the response (stimulation of phosphoinositol metabolism in rat hippocampus) to 10 uM of compound by pirenzepine

Rattus norvegicus [5] = species on record: Rattus norvegicus; test: Ability to stimulate phosphoinisitol metabolism was examined in the rat hippocampus represented as % maximal stimulation; assay type: functional
Rattus norvegicus [6] = species on record: Rattus norvegicus; test: cells; details: Hippocampus; remark: listed apart in the source
Description: Effective concentration of compound that can stimulate phosphoinositol metabolism in rat hippocampus

Rattus norvegicus [7] = species on record: Rattus norvegicus; test: cells; details: Hippocampus; remark: listed apart in the source
Description: Inhibition of the response (stimulation of phosphoinositol metabolism in rat hippocampus) to 10 uM of compound by p-F-hexahydrosiladifenidol

Rattus norvegicus [8] = species on record: Rattus norvegicus; test: Ability to stimulate phosphoinisitol metabolism was examined in the rat hippocampus; assay type: functional

SMILES	IC50 [1] [µM]	PI (Rattus norvegicus [2]) [%]	other results
Cc1noc(C2=CCCN(C)C2)n1	0.69	50	–
CCCCCCc1noc(C2CN=CNC2)n1.O=C(O)C(F)(F)F (configuration not stated)	2.3	4.3	–
CCCCCc1noc(C2CN=CNC2)n1.O=C(O)C(F)(F)F (configuration not stated)	0.56	29	–
CCCCCCCc1noc(C2CN=CNC2)n1.O=C(O)C(F)(F)F (configuration not stated)	2.3	34	–
CCCc1noc(C2CN=CNC2)n1.O=C(O)C(F)(F)F (configuration not stated)	0.55	79	–
CCCCCCCCc1noc(C2CN=CNC2)n1.O=C(O)C(F)(F)F (configuration not stated)	0.53	28	–
Cc1noc(C2CN=CNC2)n1.O=C(O)C(F)(F)F (configuration not stated)	–	700	IC50 (Rattus norvegicus [3]): 1700 nM; IC50 (Rattus norvegicus [4]): 38 nM; Max stimulation (Rattus norvegicus [5]): 510%; EC50 (Rattus norvegicus [6]): 5.2 µM; IC50 (Rattus norvegicus [7]): 1200 nM
Cc1noc(C2CN3CCC2CC3)n1 (configuration not stated)	0.35	100	–
CCc1noc(C2CN=CNC2)n1.O=C(O)C(F)(F)F (configuration not stated)	–	130	–
CCCCc1noc(C2CN=CNC2)n1.O=C(O)C(F)(F)F (configuration not stated)	0.49	61	–
CC(=O)OC1CN2CCC1CC2 (configuration not stated) [ACECLIDINE]	–	80	Max stimulation (Rattus norvegicus [8]): 390%; IC50 (Rattus norvegicus [7]): 23 nM
C[N+](C)(C)CCOC(N)=O.[Cl-] [CARBACHOL]	–	470	–
